Measurements from ChEMBL document CHEMBL1137505, “Direct diazo-transfer reaction on beta-lactam: synthesis and preliminary biological activities of 6-triazolylpenicillanic acids” (2007).
In brackets after ≈: the same amount, converted by molar mass.

Experiments:
Format in all cases: functional
[1] = test system: Bacillus anthracis; experiment: Antibacterial activity against Bacillus anthracis AMES
[2] = test system: Staphylococcus aureus; experiment: Antibacterial activity against Staphylococcus aureus ATCC 29213
[3] = test system: Escherichia coli; experiment: Antibacterial activity against Escherichia coli ATCC 25922
[4] = test system: Streptococcus pneumoniae; experiment: Antibacterial activity against Streptococcus pneumoniae ATCC 49619

| SMILES | MIC [1] [mg/L] | MIC [2] [mg/L] | MIC [3] [mg/L] | MIC [4] [mg/L] |
| --- | --- | --- | --- | --- |
| CCN1CCN(C(=O)N[C@@H](C(=O)N[C@@H]2C(=O)N3[C@@H]2SC(C)(C)[C@@H]3C(=O)O)c2ccccc2)C(=O)C1=O [PIPERACILLIN] | 1 (≈ 1.93 µM) | 2 (≈ 3.86 µM) | 4 (≈ 7.73 µM) |  |
| CC1(C)S[C@@H]2[C@H](n3cc(-c4cccs4)nn3)C(=O)N2[C@H]1C(=O)O | > 8 | > 8 | > 8 | 8 (≈ 22.8 µM) |
| CC1(C)S[C@@H]2[C@H](n3cc(-c4ccncc4)nn3)C(=O)N2[C@H]1C(=O)O | > 8 | > 8 | > 8 | > 8 |
| CC1(C)S[C@@H]2[C@H](n3cc(-c4ccccc4)nn3)C(=O)N2[C@H]1C(=O)O | > 8 | > 8 | > 8 | 4 (≈ 11.6 µM) |
| CC1(C)S[C@@H]2[C@H](n3cc(-c4ccccn4)nn3)C(=O)N2[C@H]1C(=O)O | > 8 | > 8 | > 8 | > 8 |
| CC1(C)S[C@@H]2[C@H](NC(=O)Cc3ccccc3)C(=O)N2[C@H]1C(=O)O [PENICILLIN G] | ≤ 0.125 | 1 (≈ 2.99 µM) | > 2 |  |
| CC1(C)S[C@@H]2[C@H](n3cc(-c4ccccc4-c4ccccc4)nn3)C(=O)N2[C@H]1C(=O)O | > 8 | > 8 | > 8 | > 8 |
| CC1(C)S[C@@H]2[C@H](n3cc(C(O)c4ccccc4)nn3)C(=O)N2[C@H]1C(=O)O (stereo partly drawn) | > 8 | > 8 | > 8 | > 8 |
| CC1(C)S[C@@H]2[C@H](n3cc(-c4ccc(-c5ccccc5)cc4)nn3)C(=O)N2[C@H]1C(=O)O | > 8 | > 8 | > 8 | ≥ 8 |
| CC1(C)S[C@@H]2[C@H](n3cc(C(O)c4ccc(-c5ccncc5)cc4)nn3)C(=O)N2[C@H]1C(=O)[O-].[Na+] (stereo partly drawn) | ≥ 8 | > 8 | > 8 | ≥ 8 |
| CC1(C)S[C@@H]2[C@H](n3cc(-c4cccnc4)nn3)C(=O)N2[C@H]1C(=O)O | > 8 | > 8 | > 8 | > 8 |
| CC1(C)S[C@@H]2[C@H](n3cc(Cc4ccccc4)nn3)C(=O)N2[C@H]1C(=O)O | > 8 | > 8 | > 8 | 4 (≈ 11.2 µM) |
| CC1(C)S[C@@H]2[C@H](n3cc(-c4cccc(-c5ccccc5)c4)nn3)C(=O)N2[C@H]1C(=O)O | > 8 | > 8 | > 8 | > 8 |
| CC1(C)S[C@@H]2[C@H](n3cc(-c4ccc(-c5ccncc5)cc4)nn3)C(=O)N2[C@H]1C(=O)O | > 8 | > 8 | > 8 | > 8 |
| COc1cccc(OC)c1-c1cn([C@@H]2C(=O)N3[C@@H]2SC(C)(C)[C@@H]3C(=O)O)nn1 | > 8 | > 8 | > 8 | > 8 |
